The results in this text go back to US9803164B2, “Megakaryocyte and platelet production from stem cells” (priority 2011, dated 2017).

Residues, ends and D or L forms follow the SMILES beside them. *: point of attachment. Cbz = O=C(OCc1ccccc1)*; CH2F = FC*

Holding throughout (assay type): cell-based
The test system of experiment [1] is platelets collected from the bioreactor. As to the kind of experiment: Platelet surface expression of P-selectin after activation, flow cytometry. Particulars: PMA 10 μg/mL, 15 min, room temperature; 25% at baseline. The procedure:
Platelets collected from the bioreactor were tested for their function based on the externalization of P-Selectin after activation with phorbol myristate acetate (PMA) using flow cytometry. Platelets were collected in eppendorf tubes, labeled with Alexa 647-conjugated anti-CD41 antibody, PE-conjugated anti-CD-62P (Becton Dickinson) and a live cell stain, Calcein AM (Sigma-Aldrich) for 15 min at room temperature. Next, platelets were activated using PMA (Sigma Aldrich) 10 μg/mL for 15 min at room temperature. Cells were then analyzed by flow cytometry for P-Selectin externalization. Anti-Y1-PE (Becton Dickinson) was used as an isotype control.
For orientation: A flow cytometer gives signals particle by particle.

The next experiment concerns UCB derived CD34 cells. As to the kind of experiment: Expansion of UCB derived CD34 enriched cells in serum-free suspension culture with reagents. Particulars: control mean 40-fold, n=3; for CD34 fold expansion (mean): day 7 of culture, SR-1 0.75 μM, TEPA 5 μM, zVADfmk 100 nM, SCF, TPO, FLT3-ligand 50 ng/ml. The procedure:
Umbilical cord blood units not suitable for clinical use were obtained from the New York Blood Center National Cord Blood Bank, where they were collected after informed consent in accord with the Declaration of Helsinki. Isolation of umbilical cord blood CD34 cells was performed using either a positive selection or a negative selection method. The positive selection method used has been described in G. Mattia et al., Different ploidy levels of megakaryocytes generated from peripheral or cord blood CD34+ cells are correlated with different levels of platelet release, 99(3) BLOOD 888 (February 2002). Briefly, mononuclear cells were layered on a Ficoll-Hypaque gradient (GE Healthcare, Barrington, Ill.), washed twice with phosphate-buffered saline (PBS) (Life Technologies) supplemented with 5% fetal bovine serum (FBS) (Life Technologies). To purify CD34 cells, the mononuclear selection fraction was subject to two cycles of immunomagnetic bead separation using a MINIMACS CD34 isolation kit (Miltenyi Biotech, Auburn, Calif.), according to manufacturer's recommendations. The purity of the sample ranged from 70% to 90% CD34 positive and was approximately 30% CD41 positive based on flow cytometry analysis.
The negative selection method was based on previously described methods where umbilical cord blood-derived CD34 cells were enriched by a negative selection method with the use of ROSETTESEP (Stem Cell Technologies, Vancouver, Canada). M. P. Avanzi et al., Optimizing megakaryocyte polyploidization by targeting multiple pathways of cytokinesis, 52(11) TRANSFUSION 2406 (November 2012). Briefly, cells were washed with phosphate buffered saline (PBS, Life Technologies) and incubated with ROSETTESEP reagent for 10 min at room temperature. Next, cells were layered on a Ficoll-Hypaque gradient, washed twice with phosphate-buffered saline. The final product was approximately 20% to 30% CD34 positive and 30% CD41 positive.
UCB derived CD34 enriched cells were plated at a density of 1×10^4 per well (24 well plate) in suspension culture and combined with one of the following reagents: STEM REGENIN-1 (StemCell Technologies, Vancouver, BC), 0.75 μM; copper chelator tetraethylenepentamine, 5 μM (TEPA) (Sigma Aldrich, St Louis, Mo.); or zVADfmk, 100 nM (Abcam, Cambridge, Mass.). Reagents were added with culture medium and cytokine cocktail on day 0, 4, 7 and 10 of culture. Additionally, in separate experiments, CD34 enriched cells were expanded on NANEX nanofiber membranes (Arteriocyte, Cleveland Ohio). […]
All flow cytometry experiments where performed with a BD FACS LSR FORTESSA machine (Becton Dickinson, San Jose, Calif.) and analyzed with BD FACSDIVA software (Becton Dickinson). […] Labeled cells were then analyzed and counted.

A further experiment has as its system megakaryocytes. Description: Proplatelet formation quantification (grid strategy). The following applies: day 11; treated on day 8; p=0.02, n=3. Here is the method: (§1) At the completion of the megakaryocyte differentiation stage on day 8, megakaryocytes were stimulated to undergo polyploidization by adding either the actin polymerization inhibitor, latrunculin (Santa Cruz Biotechnologies, Dallas, Tex.), at a final concentration of 10 μg/ml, or the Rho-kinase inhibitor, Y27632 (Sigma Aldrich, St. Louis, Mo.), at 10 μM, and then culturing the cells for an additional 3 or 4 days.
Proplatelet formation was quantified on day 11 of culture using a grid strategy, as previously described by M. P. Avanzi et al., Rho kinase inhibition drives megakaryocyte polyploidization and proplatelet formation through MYC and NFE2 downregulation, 164(6) BR. J HAEMATOL. 867 (March 2014). Briefly, using an inverted light microscope (Olympus CKX41) 10 random-field images were acquired at 40× magnification from each well. All megakaryocytes present on each field were counted. A counting grid with 25 μm squares was used to enumerate the number of proplatelet processes. Each proplatelet segment inside each square was counted and the sum of all segments in 10 random field images (40× magnification) was used for comparison. From these numbers, a measure of proplatelet density per cell per unit area was generated and used to compare the results of different culture conditions.

The test system of experiment [2] is megakaryocytes (CD41 cells). As to the kind of experiment: Megakaryocyte ploidy by flow cytometry after induction of polyploidization. Particulars: day 11; treated once on day 8; latrunculin 10 μg/ml or Y27632 10 μM; controls less than 10%; p=0.007, n=3. The procedure: as §1
Megakaryocyte ploidy was analyzed on day 11 of culture. Cells were labeled with Alexa 647-conjugated anti-CD41 antibody, incubated for 20 min on ice, fixed with 4% paraformaldehyde (Fisher Scientific) for 15 minutes and then washed with PBS. Next, cells were permeabilized with methanol 75% (Sigma Aldrich) for 1 hour at 4° C. and washed with PBS+BSA, 2%+NP40, 0.05% (Fischer Scientific) solution. Finally cells were treated with Propidium Iodide/RNase solution (Becton Dickinson) and incubated for 30 minutes in the dark at room temperature before flow cytometry analysis.

Regarding `CCCCCCCCCCCCCC(=O)O[C@@H]1[C@@H](C)[C@@]2(O)[C@@H](C=C(CO)C[C@]3(O)C(=O)C(C)=C[C@@H]23)[C@@H]2C(C)(C)[C@]12OC(C)=O` [PMA, phorbol 12-myristate 13-acetate], the “Particles expressing p-selectin after stimulation” value in experiment [1] is reported as 65%.
As to `CC(C)n1cnc2c(NCCc3ccc(O)cc3)nc(-c3csc4ccccc34)nc21` [SR-1, stem regenin-1], in the experiment with UCB derived CD34 cells (day 7), the “CD34 fold expansion versus control culture (significance)” value was “not significantly different”. Also, the “CD34 fold expansion (mean)” value in the experiment with UCB derived CD34 cells was determined as 85 fold.
As to `NCCNCCNCCNCCN` [TEPA, tetraethylenepentamine], the “CD34 fold expansion (mean)” value with UCB derived CD34 cells was found to be 19 fold.
Regarding `C[C@@H](N)[C@H]1CC[C@H](C(=O)Nc2ccncc2)CC1` [Y27632], in the experiment with megakaryocytes, the “Proplatelets generated compared with control megakaryocytes” value is on record as “significantly more”. Also, the “Proportion of megakaryocytes with ploidy >8” value in experiment [2] was found to be 30%.
Turning to `COC(=O)CC(NC(=O)C(C)NC(=O)C(NC(=O)OCc1ccccc1)C(C)C)C(=O)CF` (stereo not drawn) [zVADfmk, benzyloxycarbonyl-Val-Ala-Asp (OMe) fluoromethylketone] (Cbz-Val-Ala-Asp(OMe)-CH2F; configuration not given here), the “CD34 fold expansion (mean)” value in the experiment with UCB derived CD34 cells came out at 25 fold.
In the case of latrunculin, the “Proplatelets generated compared with control megakaryocytes” value with megakaryocytes is listed as “significantly more”. Besides, the “Proportion of megakaryocytes with ploidy >8” value in experiment [2] was determined as 30%.
